Structures can show the parent of a compound that is named as a salt.

Results on 4 compounds are retold here after patent US5972914A, “Remedies for liver diseases” (Meiji Milk Products Co., Ltd., priority 1998, dated 1999).

One data set has as its system mice. As to the kind of experiment: Acute toxicity test. The class given is in vivo, mice (ICR). The settings on record: i.p. Here is the method: The pH was adjusted to 7.0 by use of 5 N NaOH. Solutions having lower concentrations were prepared by dilution with physiological saline. Each solution (10 μl) was intraperitoneally injected to mice (ICR, female, 6-weeks old, 29 g), and the survival ratio was obtained.

For data set [1], the system named is hydroxyproline, fibrosis of the liver. As to the kind of experiment: Effect on hepatic cirrhosis (2): hydroxyproline in liver as index of fibrosis. The class given is in vivo, Sprague-Dawley rats. Here is the method: (§1) Groups Sprague-Dawley male rats (7 weeks old; Nippon SLC) were purchased and kept for five days before being used in the test. Each group consisted of 10 rats, and four groups were used in the test.
(§2) An N-nitrosodiethylamine solution (5.32 ml; which corresponds to 5 g due to the specific gravity of 0.94) was measured into a measuring cylinder by use of a glass pipette, and physiological saline was added to make the total volume 100 ml. Subsequently, the solution was sonicated for 2 minutes to prepare a uniform N-nitrosodiethylamine solution (50 mg/ml). The solution was prepared just before use. N-nitrosodiethylamine was intraperitoneally administered to each rat at a dose of 100 mg/2 ml/kg once in the morning on days 0, 7, 14, 21, and 28 (day 0: the first day of administration of N-nitrosodiethylamine).
An ethanolamine hydrochloric acid salt was measured and dissolved in a certain amount of distilled water for injection use. […]
The frozen liver tissue (1 g) was weighed and homogenized in a Teflon homogenizer together with pure water (3 ml). […] As an index of fibrosis, the amount of hydroxyproline was used, and the hydroxyproline content per g of liver tissue was calculated for comparison.
(3) The amount of hydroxyproline, serving as an index of fibrosis of the liver, was determined by an amino acid analysis.

The test system of another data set is serum transaminase GOT. As to the kind of experiment: Serum GOT in mice with liver disorder induced by carbon tetrachloride. The class given is in vivo, ddY mice. The protocol:
(§3) Carbon tetrachloride (5 ml, Wako Pure Chemicals) was put in a glass vial, and Panasate 800 (45 ml, Nippon Yushi Chemicals Co, Ltd.) was added to prepare a 10% (v/v) solution.
(§4) Subsequently, the total amount was made to 50 ml. An aliquot of 2 ml was diluted in 38 ml of physiological saline.
(§5) One group consisted of 10 mice. For 24 hours prior to the administration of tetrachloride, each mouse was fasted by being fed water only. 10% carbon tetrachloride/Panasate solution was intraperitoneally administered to each mice at a dose of 1 ml/kg.
(§6) Blood was collected from the abdominal aorta by use of 1-ml disposable syringes (Terumo). The blood, dispensed into 1.5 ml Eppendorf tubes, was subjected to centrifugal separation at 5,000 rpm for 10 minutes to thereby obtain serum. The activity of transaminase (GOT, GPT) in the serum thus obtained was measured. The measurement was performed by use of a Cobas Mira System (Baxter).

For data set [2], the system named is hepatic cirrhosis induced by N-nitrosodiethylamine, nodules on liver surface. As to the kind of experiment: Effect on hepatic cirrhosis (2): nodule formation on the liver surface. It is filed as in vivo, Sprague-Dawley rats. The protocol: as §1, §2
An ethanolamine hydrochloric acid salt was measured and dissolved in a certain amount of distilled water for injection use. The solution was suitably diluted and administered to each rat by oral route by use of an oral probe for rats.
The liver was visually observed, and then a portion thereof was fixed with 10% neutral formalin buffer. Portions of fixed samples were frozen and stored at -80° C. in a tightly-sealed container.
The formation of nodules was evaluated by five rankings.

A further data set has as its system liver necrosis. As to the kind of experiment: Histopathological profile of liver in mice with carbon tetrachloride liver disorder. It is filed as in vivo, ddY mice. Conditions: ethanolamine administration. The protocol: as §3, §4, §5
Another data set has as its system serum transaminase GPT. As to the kind of experiment: Serum GPT in mice with liver disorder induced by carbon tetrachloride. The class given is in vivo, ddY mice. Here is the method:
as §3, §4, §5, §6

Another data set relates to rat hepatocyte. As to the kind of experiment: 3H-TdR uptake by rat hepatocytes in primary culture (hepatocyte growth promoting activity). Conditions: in the presence of either the high molecular weight factor extract or EGF.
The test system of data set [3] is hepatocytes, tubular epithelial cells, dermal keratinocytes and melanocytes, type II epithelial cells of pulmonary alveolus, epithelial cells of gastric mucosa. The settings on record: cited from earlier work.
A further data set concerns cancer cells. Conditions: cited from earlier work.
Data set [4] has as its system hepatic cirrhosis induced by N-nitrosodiethylamine, clear cell foci. As to the kind of experiment: Effect on hepatic cirrhosis (2): formation of clear cell foci. Conditions: N-nitrosodiethylamine 100 mg/kg i.p., days 0, 7, 14, 21, 28.
The mark [5] stands for this setting: N-nitrosodiethylamine 100 mg/kg i.p., days 0, 7, 14, 21, 28.

Experimental for rat hepatocyte: In separation and identification of the low molecular weight factor showing hepatocyte proliferation promoting activity derived from epithelial mucosa of the bovine small intestine, the rat hepatocyte system in primary culture was used. To this culture system, a fraction of a crude extract of bovine small intestine epithelial mucosa in the course of purification was added in the presence of high molecular weight factor extract (1%) and insulin (10 μg/ml) or in the presence of EGF (20 ng/ml) and insulin (10 μg/ml), to thereby establish an assay system for measuring the uptake of ^3 H-TdR into DNA of rat hepatocyte nuclei.
Fractions each amounting 15 ml was added to the above-mentioned assay system and the uptake of ^3 H-TdR was measured.

For `NCCO` [EA-HCl, monoethanolamine-HCl], the “Survival, 1 day after admin.” value is 4/4 in the data set on mice (0.5 g/kg (calculated as EA)) and 3/3 in the data set with mice (1.25 g/kg (calculated as EA)). The “Survival, 6 days after admin.” value in the data set with mice (0.5 g/kg (calculated as EA)) is given as 4/4; with mice (1.25 g/kg (calculated as EA)), 3/3. Also, the “Survival, administration (day)” value with mice (0.5 g/kg (calculated as EA)) is 4/4; in the data set with mice (1.25 g/kg (calculated as EA)), 3/3; in the data set with mice (2.5 g/kg (calculated as EA)) it was 0/4; in the data set with mice (5.0 g/kg (calculated as EA)), 0/4. Besides, the time to death with mice (5.0 and 2.5 g/kg) was ≤ 30 min. For the same compound, in the data set on mice (doses equal to or less than 1.25 g/kg), the “survival at six days” value was “alive when six days had passed”.

Take `NCCO` [ethanolamine, monoethanolamine]: in data set [1] (oral, 15 and 50 mg/kg), the “amount of hydroxyproline, dose dependence” value is given as “the higher the dose of ethanolamine, the lower the amount of hydroxyproline”. The GOT level entry in the data set on serum transaminase GOT (intraperitoneal, 2.8 mg/kg) is recorded as “significantly decreased”; in the data set with serum transaminase GOT (peroral, 16 mg/kg) it was “significantly decreased”. For the same compound, in data set [2] (15 mg/kg and 50 mg/kg, Dunnett's test), the “formation of nodules, difference vs N-nitrosodiethylamine group” value was “statistically significant”. Also, the “prevention of hepatic cirrhosis induced by N-nitrosodiethylamine” value in data set [2] (oral administration) is on record as “can be prevented by oral administration of ethanolamine”. In addition, in [2] (oral, 15 and 50 mg/kg, visual observation), the “formation of nodules, dose dependence” value was “the higher the dose of ethanolamine, the less significant the formation of nodules”. Moreover, the “area of necrosis in histopathological profile of the liver” value with liver necrosis was “a tendency that the area of necrosis was reduced”. Moreover, the GPT level entry in the data set on serum transaminase GPT (intraperitoneal, 2.8 mg/kg) was “significantly decreased”; in the data set with serum transaminase GPT (peroral, 16 mg/kg), “significantly decreased”. In addition, the “3H-TdR uptake, growth-stimulating effect” value with rat hepatocyte is “synergistic growth-stimulating effects”.

Take HGF: hepatocyte growth factor (HGF): in data set [3], the mitogenic activity result is listed as “potent mitogen”. In addition, the motogen function entry in data set [3] (motion of cells) is “function as a motogen to stimulate motion of cells”. The “proliferation of cancer cells” value in the data set on cancer cells is “action to suppress proliferation of cancer cells”.

Turning to `CCN(CC)N=O` [N-nitrosodiethylamine, reference compound], the hydroxyproline level entry in data set [1] (setting [5]) was “significantly elevated”. Further, the “nodules in the surface of the liver” value in data set [2] (setting [5]) is recorded as “presented clear nodules in the surface of the liver”. The “formation of clear cell foci” value in data set [4] is listed as “considerable formation of clear cell foci”.
